Values joined by “and” are separate entries in the source; they are usually repeats but may differ in a detail not shown here. Equal values may be shown once. Read-outs that look alike come from different tables or passages of the source.
Assay: Mouse oral single-dose pharmacokinetic study with Compound EB
Assay type: in vivo
Conditions: 100 mg/kg single oral gavage
Method: Mouse Oral Single-Dose Pharmacokinetic Study with Compound EB
Determination of the Plasma profile of Compound EB following single oral gavage administration to male mice:
Test compounds were suspended in 1% HPMC using a tissue homogenizer to minimize particles and maximize uniformity of the suspension and stored at 4° C. The formulations was thoroughly mixed just prior to administration. A dose of 100 mg/kg of Compound EB or vehicle (1% HPMC) was administered to male mice by single oral gavage. Mice were placed in urine collectors after dosing for 5 hours, and the total urine output for 5 hours was collected. Samples were frozen at −80° C. until analyzed using LC/MS-MS.
At 0, 0.5, 1, 2, 4, 6, 8 and 24 hours post-dose time points, blood samples (0.4 mL) were collected by orbital sinus bleeds in K3EDTA tubes. The blood samples were centrifuged within 30 minutes of collection under refrigeration (2-8° C.) for 7 minutes at 6000 rpm. Following centrifugation, the plasma were harvested into a single tube for each animal at each time point and immediately frozen at −80° C. until analyzed using LC/MS-MS. Data was subjected to pharmacokinetic analyses using WinNonlin Standard (v2.1, Pharsight Corporation) and Microsoft EXCEL.
1. Mice received single oral gavage of Compound EB, 100 mg/kg, and plasma was collected at certain times.
2. Plasma was stored at −80° C. until the day of analysis.
3. Samples were thawed on 37° C. bath for 5 min and vortexed at top speed for 10 sec.
4. Mouse plasma, 0.1 mL was mixed with 0.2 mL Acetonitrile, vortexed 1 min, spun down 14000 rpm, 17000 g, at 4° C., for 25 min.
5. Supernatants were filtered through 0.45 micron, 4 mm, PTFE membrane syringe filter (Phenomenex # AF0-3102-52), and 13 microL were injected and resolved on Luna 3 micron, 100 A pore, C8(2), 150×3 mm, reverse phase column (Phenomenex#00F-4248-YO, SN#259151-7) in 50 min linear gradient from 40% to 69% of (0.1% Formic Acid, 89.9% Acetonitrile, 10% Methanol) at 0.25 mL/min, 100 bar, 37° C. column temperature, method 406975M1, Sequence 1029-08A, Agilent 1100 LC-MS.
All samples were run in duplicate, 210 nm and 230 nm Absorbances, Negative and Positive ionization spectrograms recorded.
Step 1. Plasma from “Vehicle” animals (pooled), 0.095 mL, was mixed with 0.005 mL 20× stock of Compound EB in Methanol to make 500 microM, 250 microM, 125 microM, . . . , concentrations of Compound EB in plasma.
For example: 95 microL plasma+5 microL of 10 mM Compound EB in methanol=0.1 mL plasma with 500 microM Compound EB.
Step 2. Samples from step 1 were vortexed for 10 sec at top speed.
Step 3. 0.2 mL of acetonitrile was added to all samples from Step 2, and all vials were vortexed at top speed for 1 min.
Step 4. All samples from step 3 were spun down 14000 rpm, 17000 g, at 4° C., for 25 min.
Step 5. Supernatants were filtered through 0.45 micron, 4 mm, PTFE membrane syringe filter (Phenomenex # AF0-3102-52), 13 microL were injected and resolved on Luna 3 micron, 100 A pore, C8(2), 150×3 mm, reverse phase column

Detection in mouse plasma (in words) (LC-MS): readily detected
Compound EB concentr. in plasma, individual animals (male mice, bleed time 0 HR): 0 µg/mL
Compound EB concentr. in plasma, individual animals (male mice, bleed time 0.5 HR): 207.5 µg/mL and 134.2 µg/mL
Compound EB concentr. in plasma, individual animals (male mice, bleed time 1 HR): 139.7 µg/mL and 157.6 µg/mL
Compound EB concentr. in plasma, individual animals (male mice, bleed time 4 HR): 74.9 µg/mL and 92.1 µg/mL and 39.6 µg/mL
Compound EB concentr. in plasma, individual animals (male mice, bleed time 6 HR): 79.9 µg/mL and 48 µg/mL
Compound EB concentr. in plasma, individual animals (male mice, bleed time 8 HR): 18.2 µg/mL and 10.7 µg/mL and 0 µg/mL
Compound EB concentr. in plasma, individual animals (male mice, bleed time 24 HR): 0 µg/mL
AUC0-24 (male mice, plasma): AUC0-24: 796 μg/mL
concentration at 0 h (male, mouse, plasma, po, 100 mg/kg, male mice, 0 hr, read-out: Compound EB concentration in plasma, average): 0 ng/mL
concentration at 0.5 h (male, mouse, plasma, po, 100 mg/kg, male mice, 0.5 hr, read-out: Compound EB concentration in plasma, average): 183 µg/mL
concentration at 1 h (male, mouse, plasma, po, 100 mg/kg, male mice, 1 hr, read-out: Compound EB concentration in plasma, average): 169 µg/mL
concentration at 2 h (male, mouse, plasma, po, 100 mg/kg, male mice, 2 hr): 137 µg/mL
concentration at 4 h (male, mouse, plasma, po, 100 mg/kg, male mice, 4 hr): 69 µg/mL
concentration at 6 h (male, mouse, plasma, po, 100 mg/kg, male mice, 6 hr, read-out: Compound EB concentration in plasma, average): 62 µg/mL
concentration at 8 h (male, mouse, plasma, po, 100 mg/kg, male mice, 8 hr): 10 µg/mL
concentration at 24 h (male, mouse, plasma, po, 100 mg/kg, male mice, 24 hr, read-out: Compound EB concentration in plasma, average): 3 µg/mL
concentration at 0 h (male, mouse, plasma, po, 100 mg/kg, male mice, bleed time 0 HR, read-out: Compound EB concentr. in plasma, individual animals): 0 ng/mL
concentration at 0.5 h (male, mouse, plasma, po, 100 mg/kg, male mice, bleed time 0.5 HR, read-out: Compound EB concentr. in plasma, individual animals): 206 µg/mL
concentration at 1 h (male, mouse, plasma, po, 100 mg/kg, male mice, bleed time 1 HR, read-out: Compound EB concentr. in plasma, individual animals): 210 µg/mL
concentration at 6 h (male, mouse, plasma, po, 100 mg/kg, male mice, bleed time 6 HR, read-out: Compound EB concentr. in plasma, individual animals): 58.7 µg/mL
concentration at 24 h (male, mouse, plasma, po, 100 mg/kg, male mice, bleed time 24 HR, read-out: Compound EB concentr. in plasma, individual animals): 0 µg/mL
Cmax (mouse, male mice, plasma): 210 µg/mL
SMILES: Cc1cccc(C)c1COc1cccc(-c2nnn[nH]2)c1 [Compound EB, 5-(3-(2,6-Dimethylbenzyloxy)phenyl)-1H-tetrazole]
Compound EB concentr. in plasma, individual animals (male mice, bleed time 2 HR): 139.9 µg/mL and 187.6 µg/mL and 82.4 µg/mL
